Patent US11878972B2, “Treatment of neurological disorders” (TORQUR AG, priority 2016, dated 2024)

Key:
pPKB S473 in A2058 cells = assay: In-cell Western blot, pPKB S473; assay type: cell-based; conditions: Homo sapiens, treated for 1 hour, normalized to α-tubulin
Method: Cells are fixed with 4% paraformaldehyde for 30 minutes at room temperature, washed 2 times with 1% BSA in PBS, permeabilized with 0.1% Triton X-100 in PBS/1% BSA for 30 minutes at room temperature and blocked with 5% goat serum in PBS/1% BSA/0.1% Triton X-100 for 30 minutes at room temperature. […] Cells are washed 3 times 5 minutes with PBS/1% BSA/0.1% triton and plate scanned with the Odyssey Infrared Scanning system using both 700 and 800 nm channels. […] To correct for background staining in the data analysis wells are treated only with secondary antibodies.
For data analysis the mean background signal from channel 700 nm and 800 nm are subtracted from each signal in channel 700 nm and 800 nm, respectively.
IC50 values of each compound are determined by plotting the normalized pPBK S473 and pS6 S235/S236 signals, respectively, versus the compound concentrations (in logarithmic scale) and then by fitting a sigmoidal dose-response curve with variable slope to the data using GraphPad™ Prism.

[1] = PK in Sprague Dawley (SD) rats; assay type: in vivo, rat
Method: A single oral administration of cpd. 3, 10 mg/kg was given to female SD rats in a vehicle consisting of DMSO/HPBCD 20% (10/90). Animals were housed in controlled environment and enclosures provided sterile and adequate space with bedding material, food and water, environmental and social enrichment (group housing). Rats were randomized according to their individual body weight, treated and blood, brain and liver were collected and snap frozen at the following time points: 0.5, 2, 4 and 8 hours. Blood (approximately 500-700 μL, collected via cardiac puncture under anesthesia) was immediately transferred into tubes containing lithium-heparin as anticoagulant (Ref: T MLH, Venoject®, Terumo). Tubes were centrifuged at 1,300 g for 10 minutes at +4° C. The resulting plasma was collected and snap frozen in liquid nitrogen and stored at −80° C. until analysis.
Compound concentrations were detected by HPLC-MS/MS. The calibration curves were drawn using standards of known concentrations.

in vivo = conditions: B57BL/6J, mouse
Method: 8, 50 mg/kg was administered to B57BL/6J mice by gavage. Animals were housed in temperature controlled rooms with free access to food and water. Test items were weighed in a glass vial and dissolved first in DMSO. Tween 80 was added subsequently and finally, the formulation was completed with HPβCD 20%. […] Blood was collected in tubes containing K3-EDTA and stored on ice until centrifugation at 3000×g (10 min. 4° C.). The plasma supernatant was separated and kept at −20° C. until being assayed. Thigh muscle and brain of mice were snap frozen. The brain and muscle samples were homogenized in PBS using the Precellys 24/Dual homogeniser.
Samples were analyzed by LC-MS. Calibration standards were prepared by spiking 20 μl of drug free blank plasma with calibration solution. […] Samples were vigorously shaken and centrifuged for 10 minutes at 6000 g and 20° C. […] An aliquot was transferred to 200 μl sampler vials and subsequently subjected to LC-MS with an injection volume of 1.5 μl.

Tsc1GFAP knockout mice = assay: Electrographic seizures in Tsc1 GFAP conditional knockout mice
Method: Tsc1 mice belonging to either sex were acclimated to the environment, examined, handled, and weighed prior to initiation of the study to assure adequate health and suitability and to minimize non-specific stress associated with human handling. During the course of the study, 12/12 light/dark cycles were maintained. The room temperature was maintained between 20 and 23° C. with a relative humidity maintained around 50%. Food and water were provided ad libitum for the duration of the study. Each mouse was randomly assigned to designated treatment groups. The dosing was performed during the animals' light cycle phase.
Aseptic technique was used throughout the surgical procedures described below. […] Adequate plane of anesthesia was insured by the lack of a withdrawal response to toe pinch and a visible change in the breathing rate. The mouse head was immobilized in a stereotaxic frame with a nose piece that supplied the anesthetic continuously. Ophthalmic ointment was applied to the eyes to prevent drying of the cornea. […]
EEG was recorded using 10× or 100× gain pre-amplifiers. […]
Simultaneously, videographic recording was made through this period to provide a data stream for behavioral evaluation of the mice as needed. After the recording period was completed, individual EEG traces were evaluated for aberrant EEG activity. […]

[2] = female, Sprague-Dawley, plasma, rat, po, 10 mg/kg, single

Row | SMILES | IC50 (pPKB S473 in A2058 cells) | oral bioavailability ([1]; SD rats, single oral 10 mg/kg) | penetration into the brain ([1]; SD rats, single oral 10 mg/kg) | Tmax ([1]; female, Sprague-Dawley, brain, rat, po, 10 mg/kg, single, read-out: Brain Tmax) | AUC [1, 2] | Cmax [1, 2] | Tmax ([1]; female, Sprague-Dawley, plasma, rat, po, 10 mg/kg, single, read-out: Plasma Tmax) | Brain AUC ([1]; rat, po, 10 mg/kg, single) | Brain Cmax ([1]; rat, po, 10 mg/kg, single) | half-life (in vivo; half-life) | AUC (in vivo; po, 50 mg/kg) | Tmax (in vivo; po, 50 mg/kg) | half-life (in vivo; po, 50 mg/kg, Brain t1/2) | half-life (in vivo; po, 50 mg/kg, Plasma t1/2) | half-life (in vivo; po, 50 mg/kg, half-life in mice (estimated)) | Body weight (Tsc1GFAP knockout mice; TSC1 GFAP mice, during treatment) | effect on spontaneous electrographic seizures (Tsc1GFAP knockout mice; Tsc1 GFAP mice, chronic treatment)
1 | C[C@H]1COCCN1c1nc(-c2cnc(N)cc2C(F)F)nc(N2CCOCC2)n1 [Compound 8, (S)-4-(difluoromethyl)-5-(4-(3-methylmorpholino)-6-morpholino-1,3,5-triazin-2-yl)pyridin-2-amine] | 74 nM |  |  |  |  |  |  |  |  |  |  |  |  |  |  |  | 
2 | Nc1cc(C(F)F)c(-c2nc(N3C4CCC3COC4)nc(N3C4CCC3COC4)n2)cn1 [Compound 3, 5-(4-(3-oxa-8-azabicyclo[3.2.1]octan-8-yl)-6-(3-oxa-8-azabicyclo[3.2.1]octan-8-yl)-1,3,5-triazin-2-yl)-4-(difluoromethyl)pyridin-2-amine] |  | good oral bioavailability | excellent penetration into the brain | 0.5 h | 400 ng·h/mL | 1400 ng/mL | 0.5 h | 2500 ng·h/mL | 1.3 µg/g | 5 h | 20500 ng·h/mL | 0.5 h | 5 h | 5.3 h | 4.7 to 4.8 h | higher towards the end of the study | strongly reduce spontaneous seizures
